# Source: patent US12077503B2, “Substituted cyclic amides and their use as herbicides” (FMC CORPORATION, priority 2015, dated 2024)
# Tests used:
# Format in all cases: in vivo
# [1] = test system: wheat (Triticum aestivum); experiment: Test A postemergence; conditions: postemergence; for Wheat plant response rating: 125 g ai/ha, visual injury rating on 0 to 100 scale (0 no effect, 100 complete control), approx. 10 d; for Plant response rating, Wheat: 500 g ai/ha, 0 to 100 scale, 0 no effect, 100 complete control
# In short: (§1)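 Visual injury, scored on a 0–100 scale relative to untreated controls, was recorded about 10 d after application. Treatments were a preemergence soil spray over planted seeds or a postemergence spray on plants at the one- to two-leaf stage, 2 to 10 cm tall, all in loam soil–sand blend in the greenhouse.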
# Kochia (Kochia scoparia) [2] = experiment: Test A postemergence; conditions: postemergence; for Kochia plant response rating: 125 g ai/ha, visual injury rating on 0 to 100 scale (0 no effect, 100 complete control), approx. 10 d; for Plant response rating, Kochia: 500 g ai/ha, 0 to 100 scale, 0 no effect, 100 complete control
# In short: as §1
# [3] = test system: barnyardgrass (Echinochloa crus-galli); experiment: Test A postemergence; conditions: postemergence; for Barnyardgrass plant response rating: 125 g ai/ha, visual injury rating on 0 to 100 scale (0 no effect, 100 complete control), approx. 10 d; for Plant response rating, Barnyardgrass: 500 g ai/ha, 0 to 100 scale, 0 no effect, 100 complete control
# In short: as §1
# [4] = test system: giant foxtail (Setaria faberii); experiment: Test A postemergence; conditions: postemergence; for Foxtail, Giant plant response rating: 125 g ai/ha, visual injury rating on 0 to 100 scale (0 no effect, 100 complete control), approx. 10 d; for Plant response rating, Foxtail, Giant: 500 g ai/ha, 0 to 100 scale, 0 no effect, 100 complete control
# In short: as §1
# [5] = test system: pigweed (Amaranthus retroflexus); experiment: Test A postemergence; conditions: postemergence; for Pigweed plant response rating: 125 g ai/ha, visual injury rating on 0 to 100 scale (0 no effect, 100 complete control), approx. 10 d; for Plant response rating, Pigweed: 500 g ai/ha, 0 to 100 scale, 0 no effect, 100 complete control
# In short: as §1
# [6] = test system: ragweed (common ragweed, Ambrosia elatior); experiment: Test A postemergence; conditions: postemergence; for Ragweed plant response rating: 125 g ai/ha, visual injury rating on 0 to 100 scale (0 no effect, 100 complete control), approx. 10 d; for Plant response rating, Ragweed: 500 g ai/ha, 0 to 100 scale, 0 no effect, 100 complete control
# In short: as §1
# [7] = test system: Galium (catchweed bedstraw, Galium aparine); experiment: Test A postemergence; conditions: postemergence; for Galium plant response rating: 125 g ai/ha, visual injury rating on 0 to 100 scale (0 no effect, 100 complete control), approx. 10 d; for Plant response rating, Galium: 500 g ai/ha, 0 to 100 scale, 0 no effect, 100 complete control
# In short: as §1
# corn (Zea mays) = experiment: Test A postemergence; conditions: postemergence; for Corn plant response rating: 125 g ai/ha, visual injury rating on 0 to 100 scale (0 no effect, 100 complete control), approx. 10 d; for Plant response rating, Corn: 500 g ai/ha, 0 to 100 scale, 0 no effect, 100 complete control
# In short: as §1
# [8] = test system: ryegrass, Italian (Italian ryegrass, Lolium multiflorum); experiment: Test A postemergence; conditions: postemergence; for Ryegrass, Italian plant response rating: 125 g ai/ha, visual injury rating on 0 to 100 scale (0 no effect, 100 complete control), approx. 10 d; for Plant response rating, Ryegrass, Italian: 500 g ai/ha, 0 to 100 scale, 0 no effect, 100 complete control
# In short: as §1
# [9] = test system: blackgrass (Alopecurus myosuroides); experiment: Test A postemergence; conditions: postemergence; for Blackgrass plant response rating: 125 g ai/ha, visual injury rating on 0 to 100 scale (0 no effect, 100 complete control), approx. 10 d; for Plant response rating, Blackgrass: 500 g ai/ha, 0 to 100 scale, 0 no effect, 100 complete control
# In short: as §1
# [10] = test system: sedge, umbrella (small-flower umbrella sedge, Cyperus difformis); experiment: Test B flooded paddy test; conditions: Flood, 250 g ai/ha; 0 to 100 scale where 0 is no effect and 100 is complete control; 13 to 15 d
# In short: (§2)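 Rating scale 0–100 (visual, vs untreated controls) after a 13–15 d greenhouse period; application to the flood layer, 3 cm above soil and maintained; plants at 2-leaf stage when treated.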
# [11] = test system: barnyardgrass (Echinochloa crus-galli); experiment: Test B flooded paddy test; conditions: Flood, 250 g ai/ha; 0 to 100 scale where 0 is no effect and 100 is complete control; 13 to 15 d
# In short: as §2
# rice (Oryra sativa) = experiment: Test B flooded paddy test; conditions: Flood, 250 g ai/ha; 0 to 100 scale where 0 is no effect and 100 is complete control; 13 to 15 d
# In short: as §2
# [12] = test system: ducksalad (Heteranthera limosa); experiment: Test B flooded paddy test; conditions: Flood, 250 g ai/ha; 0 to 100 scale where 0 is no effect and 100 is complete control; 13 to 15 d
# In short: as §2
# Kochia (Kochia scoparia) [13] = experiment: Test A preemergence; conditions: for Plant response rating, Kochia: 125 g ai/ha, preemergence, 0 to 100 scale (0 no effect, 100 complete control); for Kochia plant response rating (0 to 100 scale, 0 is no effect, 100 is complete control): Preemergence, 500 g ai/ha, visual injury approx. 10 d
# In short: as §1
# [14] = test system: barnyardgrass (Echinochloa crus-galli); experiment: Test A preemergence; conditions: for Plant response rating, Barnyardgrass: 125 g ai/ha, preemergence, 0 to 100 scale (0 no effect, 100 complete control); for Barnyardgrass plant response rating (0 to 100 scale, 0 is no effect, 100 is complete control): Preemergence, 500 g ai/ha, visual injury approx. 10 d
# In short: as §1
# [15] = test system: giant foxtail (Setaria faberii); experiment: Test A preemergence; conditions: for Plant response rating, Foxtail, Giant: 125 g ai/ha, preemergence, 0 to 100 scale (0 no effect, 100 complete control); for Foxtail, Giant plant response rating (0 to 100 scale, 0 is no effect, 100 is complete control): Preemergence, 500 g ai/ha, visual injury approx. 10 d
# In short: as §1
# [16] = test system: pigweed (Amaranthus retroflexus); experiment: Test A preemergence; conditions: for Plant response rating, Pigweed: 125 g ai/ha, preemergence, 0 to 100 scale (0 no effect, 100 complete control); for Pigweed plant response rating (0 to 100 scale, 0 is no effect, 100 is complete control): Preemergence, 500 g ai/ha, visual injury approx. 10 d
# [17] = test system: ragweed (common ragweed, Ambrosia elatior); experiment: Test A preemergence; conditions: for Plant response rating, Ragweed: 125 g ai/ha, preemergence, 0 to 100 scale (0 no effect, 100 complete control); for Ragweed plant response rating (0 to 100 scale, 0 is no effect, 100 is complete control): Preemergence, 500 g ai/ha, visual injury approx. 10 d
# In short: as §1
# [18] = test system: ryegrass, Italian (Italian ryegrass, Lolium multiflorum); experiment: Test A preemergence; conditions: for Plant response rating, Ryegrass, Italian: 125 g ai/ha, preemergence, 0 to 100 scale (0 no effect, 100 complete control); for Ryegrass, Italian plant response rating (0 to 100 scale, 0 is no effect, 100 is complete control): Preemergence, 500 g ai/ha, visual injury approx. 10 d
# In short: as §1
SMILES,Wheat plant response rating [1],"Plant response rating, Wheat [1]",Kochia plant response rating (Kochia (Kochia scoparia) [2]),"Plant response rating, Kochia (Kochia (Kochia scoparia) [2])",Barnyardgrass plant response rating [3],"Plant response rating, Barnyardgrass [3]","Foxtail, Giant plant response rating [4]","Plant response rating, Foxtail, Giant [4]",Pigweed plant response rating [5],"Plant response rating, Pigweed [5]",Ragweed plant response rating [6],"Plant response rating, Ragweed [6]",Galium plant response rating [7],"Plant response rating, Galium [7]",Corn plant response rating (corn (Zea mays)),"Plant response rating, Corn (corn (Zea mays))","Ryegrass, Italian plant response rating [8]","Plant response rating, Ryegrass, Italian [8]",Blackgrass plant response rating [9],"Plant response rating, Blackgrass [9]",other results
O=C1NCC(c2ccc(Br)cc2)C1C(=O)Nc1ccccc1F (stereo not drawn) [Compound 448],0,0,30,50,80,90,60,80,20,40,0,0,30,50,0,0,0,20,0,30,"Plant response rating, Sedge, Umbrella [10]: 0; Plant response rating, Barnyardgrass [11]: 40; Plant response rating, Rice (rice (Oryra sativa)): 0; Plant response rating, Ducksalad [12]: 95; Plant response rating, Kochia (Kochia (Kochia scoparia) [13]): 20; Kochia plant response rating (0 to 100 scale, 0 is no effect, 100 is complete control) (Kochia (Kochia scoparia) [13]): 50; Plant response rating, Barnyardgrass [14]: 90; Barnyardgrass plant response rating (0 to 100 scale, 0 is no effect, 100 is complete control) [14]: 90; Plant response rating, Foxtail, Giant [15]: 90; Foxtail, Giant plant response rating (0 to 100 scale, 0 is no effect, 100 is complete control) [15]: 90; Plant response rating, Pigweed [16]: 20; Pigweed plant response rating (0 to 100 scale, 0 is no effect, 100 is complete control) [16]: 40; Plant response rating, Ragweed [17]: 0; Ragweed plant response rating (0 to 100 scale, 0 is no effect, 100 is complete control) [17]: 20; Plant response rating, Ryegrass, Italian [18]: 0; Ryegrass, Italian plant response rating (0 to 100 scale, 0 is no effect, 100 is complete control) [18]: 20"
O=C(Nc1cccc(F)c1F)C1C(=S)NCC1c1cccc(C(F)(F)F)c1 (stereo not drawn) [Compound 454],20,40,0,0,60,80,70,80,0,0,0,0,0,30,50,70,0,40,0,50,"Plant response rating, Sedge, Umbrella [10]: 0; Plant response rating, Barnyardgrass [11]: 40; Plant response rating, Rice (rice (Oryra sativa)): 15; Plant response rating, Ducksalad [12]: 60; Plant response rating, Kochia (Kochia (Kochia scoparia) [13]): 0; Kochia plant response rating (0 to 100 scale, 0 is no effect, 100 is complete control) (Kochia (Kochia scoparia) [13]): 0; Plant response rating, Barnyardgrass [14]: 70; Barnyardgrass plant response rating (0 to 100 scale, 0 is no effect, 100 is complete control) [14]: 80; Plant response rating, Foxtail, Giant [15]: 80; Foxtail, Giant plant response rating (0 to 100 scale, 0 is no effect, 100 is complete control) [15]: 90; Plant response rating, Pigweed [16]: 0; Pigweed plant response rating (0 to 100 scale, 0 is no effect, 100 is complete control) [16]: 0; Plant response rating, Ragweed [17]: 0; Ragweed plant response rating (0 to 100 scale, 0 is no effect, 100 is complete control) [17]: 0; Plant response rating, Ryegrass, Italian [18]: 0; Ryegrass, Italian plant response rating (0 to 100 scale, 0 is no effect, 100 is complete control) [18]: 30"
Cc1c(F)ccc(NC(=O)C2C(=O)NCC2c2cc(F)cc(F)c2)c1F (stereo not drawn) [Compound 461],0,0,0,0,80,90,80,80,0,0,0,0,0,20,0,0,0,20,0,0,"Plant response rating, Sedge, Umbrella [10]: 0; Plant response rating, Barnyardgrass [11]: 60; Plant response rating, Rice (rice (Oryra sativa)): 0; Plant response rating, Ducksalad [12]: 100; Plant response rating, Kochia (Kochia (Kochia scoparia) [13]): 0; Kochia plant response rating (0 to 100 scale, 0 is no effect, 100 is complete control) (Kochia (Kochia scoparia) [13]): 50; Plant response rating, Barnyardgrass [14]: 70; Barnyardgrass plant response rating (0 to 100 scale, 0 is no effect, 100 is complete control) [14]: 90; Plant response rating, Foxtail, Giant [15]: 90; Foxtail, Giant plant response rating (0 to 100 scale, 0 is no effect, 100 is complete control) [15]: 90; Plant response rating, Pigweed [16]: 0; Pigweed plant response rating (0 to 100 scale, 0 is no effect, 100 is complete control) [16]: 0; Plant response rating, Ragweed [17]: 0; Ragweed plant response rating (0 to 100 scale, 0 is no effect, 100 is complete control) [17]: 0; Plant response rating, Ryegrass, Italian [18]: 20; Ryegrass, Italian plant response rating (0 to 100 scale, 0 is no effect, 100 is complete control) [18]: 20"
